From patent publication US20060166985A1, “Pyrrolydin-2-one derivatives as inhibitors of thrombin and factor xa” (priority 2002, published 2006)

Target: human Thrombin (Homo sapiens, UniProt P00734)
Experiment: In vitro assay for inhibition of Thrombin (chromogenic or fluorogenic assay)
Type: biochemical
Details: Example 2 chromogenic assay, other Examples fluorogenic assay, read-out: thrombin inhibitory Ki
Experimental: Thrombin inhibitory activity is measured by the ability to inhibit human α-thrombin in a chromogenic assay using N-p-tosyl-gly-pro-lys p-nitroanilide as the chromogenic substrate, or in a fluorogenic assay using Rhodamine 110, bis-(CBZ-L-valyl-L-prolyl-L-arginine amide) as the fluorogenic substrate.
The compound was diluted from a 10 mM stock solution in dimethylsulfoxide at appropriate concentrations. Assay was performed at room temperature using buffer consisting of: 50 mM HEPES, 150 mM NaCl, 5 mM CaCl2, 0.1% PEG, pH 7.4. containing human Thrombin (final conc. of 1 nM). Compound and enzyme were preincubated for 15 min prior to addition of the substrate (final conc. of 100 μM). The reaction was stopped after 30 min with the addition of soybean trypsin inhibitor or H-D-PHE-PRO-ARG-Chloromethylketone. […] To obtain IC50 values the data were analysed using ActivityBase® and XLfit®.
Compounds were diluted from a 10 mM stock solution in dimethylsulfoxide at appropriate concentrations. Assay was performed at room temperature using buffer consisting of: 50 mM HEPES, 150 mM NaCl, 5 mM CaCl2, 0.1% PEG, pH 7.4. containing human Thrombin (final conc. Of 0.2 nM). Compound and enzyme were preincubated for 15 min prior to addition of the substrate (final conc. of 10 μM). The reaction was stopped after 3 hrs with the addition of H-D-PHE-PRO-ARG-Chloromethylketone. […] To obtain IC50 values the data were analysed using ActivityBase® and XLfit®.

SMILES	Ki
O=C(C(c1cccnc1)N1CC[C@H](NS(=O)(=O)CCc2ccc(Cl)s2)C1=O)N1CCOCC1 (mixture of isomers) [Example 92, 2-(5-chloro-2-thienyl)-N-{(3S)-1-[2-(4-morpholinyl)-2-oxo-1-(3-pyridinyl)ethyl]-2-oxo-3-pyrrolidinyl}ethanesulfonamide]	< 50 nM
C[C@@H](C(=O)N1CCOCC1)N1CC[C@H](NS(=O)(=O)/C=C/c2ccc(Cl)cc2)C1=O [(E)-2-(4-chlorophenyl)-N-{(3S)-1-[(1S)-1-methyl-2-morpholin-4-yl-2-oxoethyl]-2-oxopyrrolidin-3-yl}ethenesulfonamide, reference compound]	> 200 nM
C/C(=C\S(=O)(=O)N[C@H]1CCN([C@@H](C)C(=O)N2CCOCC2)C1=O)c1ccc(Cl)cc1 [Example 3, (1E)-2-(4-chlorophenyl)-N-{(3S)-1-[(1S)-1-methyl-2-morpholin-4-yl-2-oxoethyl]-2-oxopyrrolidin-3-yl}prop-1-ene-1-sulfonamide]	< 25 nM
C[C@@H](C(=O)N1CCOCC1)N1CC[C@H](NS(=O)(=O)CCc2ccc(Cl)cc2)C1=O [Example 4, 2-(4-chlorophenyl)-N-{(3S)-1-[(1S)-1-methyl-2-morpholin-4-yl-2-oxoethyl]-2-oxopyrrolidin-3-yl}ethanesulfonamide]	< 50 nM
CC[C@@H](C(=O)N1CCOCC1)N1CC[C@H](NS(=O)(=O)CCc2ccc(Cl)s2)C1=O [Example 5, 2-(5-chlorothien-2-yl)-N-{(3S)-1-[(1S)-1-(morpholin-4-ylcarbonyl)propyl]-2-oxopyrrolidin-3-yl}ethanesulfonamide]	< 25 nM
CC[C@@H](C(=O)N1CCOCC1)N1CC[C@H](NS(=O)(=O)CCc2ccc(Cl)cc2)C1=O [Example 6, 2-(4-chlorophenyl)-N-{(3S)-1-[(1S)-1-(morpholin-4-ylcarbonyl)propyl]-2-oxopyrrolidin-3-yl}ethanesulfonamide]	< 100 nM
CC[C@H](C)[C@@H](C(=O)N1CCOCC1)N1CC[C@H](NS(=O)(=O)CCc2ccc(Br)cc2)C1=O [Example 12, 2-(4-bromophenyl)-N-{(3S)-1-[(1S,2S)-2-methyl-1-(morpholin 4-ylcarbonyl)butyl]-2-oxopyrrolidin-3-yl}ethanesulfonamide]	< 25 nM

Results, then the molecule that gave them:

Ki	SMILES
< 10 nM	CC[C@@H](C(=O)N1CCOCC1)N1CC[C@H](NS(=O)(=O)/C=C(\C)c2ccc(Cl)s2)C1=O [Example 7, (1E)-2-(5-chlorothien-2-yl)-N-{(3S)-1-[(1S)-1-(morpholin-4-ylcarbonyl)propyl]-2-oxopyrrolidin-3-yl}prop-1-ene-1-sulfonamide]
< 10 nM	CC(C)[C@@H](C(=O)N1CCOCC1)N1CC[C@H](NS(=O)(=O)CCc2ccc(Cl)s2)C1=O [Example 8, 2-(5-chlorothien-2-yl)-N-{(3S)-1-[(1S)-2-methyl-1-(morpholin-4-ylcarbonyl)propyl]-2-oxopyrrolidin-3-yl}ethanesulfonamide]
< 10 nM	C/C(=C\S(=O)(=O)N[C@H]1CCN([C@H](C(=O)N2CCOCC2)C(C)C)C1=O)c1ccc(Cl)s1 [Example 9, (1E)-2-(5-chlorothien-2-yl)-N-{(3S)-1-[(1S)-2-methyl-1-(morpholin-4-ylcarbonyl)propyl]-2-oxopyrrolidin-3-yl}prop-1-ene-1-sulfonamide]
< 10 nM	CC[C@H](C)[C@@H](C(=O)N1CCOCC1)N1CC[C@H](NS(=O)(=O)CCc2ccc(Cl)s2)C1=O [Example 10, 2-(5-chlorothien-2-yl)-N-{(3S)-1-[(1S,2S)-2-methyl-1-(morpholin-4-ylcarbonyl)butyl]-2-oxopyrrolidin-3-yl}ethanesulfonamide]
< 10 nM	CC[C@H](C)[C@@H](C(=O)N1CCOCC1)N1CC[C@H](NS(=O)(=O)/C=C(\C)c2ccc(Cl)s2)C1=O [Example 11, (1E)-2-(5-chlorothien-2-yl)-N-{(3S)-1-[(1S,2S)-2-methyl-1-(morpholin-4-ylcarbonyl)butyl]-2-oxopyrrolidin-3-yl}prop-1-ene-1-sulfonamide]
